The conditions of data set [1]: after a single administration; cited from earlier work.
The test system of data set [2] is Raji-luc B lymphoma cells. Nature of the data set: Drug delivery study in Raji B cell lymphoma model (survival, bioluminescence, kidney histology). The format is in vivo, NSG mice. The protocol:
Drug delivery study and histology: NSG male mice (7 weeks) were inoculated with 1×10^6 Raji-luc cells intravenously. […] For the first study, dosing started on day 3 and drugs/drug delivery system were injected i.p. every 4 days for a total of 6 injections. For the second study, dosing started on day 11 and drugs/drug delivery system were injected i.p. every 4 days for a total of 3 injections. For both studies, weekly bioluminescence imaging using the IVIS Spectrum was used to monitor lymphoma progression. […] Tissues were harvested for histology using H&E staining to show tumor burden or lack thereof.
Male NSG mice were injected intravenously with luciferase expressing Raji cells and monitored for lymphoma engraftment and progression using bioluminescence imaging. Tumor engrafted mice were randomly assigned to the treatment groups (n=5).
The MMAE dose was selected based on the fact that the known maximum tolerated dose (MTD) of free MMAE is 0.25-0.5 mg kg^−1 after a single administration. A dose of 0.125 mg/kg was chosen to allow for multiple treatments. Mice injected intravenously with Raji cells develop hind leg paralysis (due to the infiltration of neoplastic cells into the spinal canal) and/or lose weight prior to death. Therefore, hind leg paralysis or >15% loss in body weight were considered experimental endpoints at which mice were euthanized.

The test system of another data set is normal donor B cells. The following applies: normal B cells from healthy human donor, 72 hours.
For the next data set, the system named is Raji cells. The following applies: read-out: IC50 (cytotoxicity), 72 hours.
Another data set has as its system Daudi cells. To be noted: read-out: IC50 (cytotoxicity), 72 hours.

*1 amine or outer side, *2 acyl side, *3 side chain or, on linkers, in order; H or OH if unused. Where a SMILES comes first, the peptide text is derived from it. [ ]: non-standard residue; d: D form. The star is where a group is joined. Dolaproine = CO[C@@H]([C@@H]1CCCN1)[C@@H](C)C(=O)O; Hexanoyl(6-maleimido) = O=C1C=CC(=O)N1CCCCCC(=O)*; Dil = CC[C@H](C)[C@H](NC)[C@@H](CC(=O)O)OC; PABC = O=C(OCc1ccc(N[*:1])cc1)[*:2]; X1 = C[C@@H](N*)[C@@H](O)c1ccccc1; Cit = NC(=O)NCCC[C@H](N)C(=O)O; NMeV = CN[C@H](C(=O)O)C(C)C

Description for Daudi cells: (§1) Cell viability and proliferation in cell lines were estimated using a resazurin based assay (Prestoblue, Thermo Scientific). Cell viability in healthy B cells was measured using 7-AAD (Cayman Chemical Company, Ann Harbor, Mich.) cell exclusion using flow cytometric analysis gated on the B cell fraction (CD19-PE, BD Biosciences, Franklin Lakes, N.J.).
Description for Raji cells: as §1
Description for normal donor B cells: as §1

For the compound `CC[C@H](C)[C@@H]([C@@H](CC(=O)N1CCC[C@H]1[C@H](OC)[C@@H](C)C(=O)N[C@H](C)[C@@H](O)c1ccccc1)OC)N(C)C(=O)[C@@H](NC(=O)[C@@H](NC)C(C)C)C(C)C` [MMAE, (S)-N-((3R,4S,5S)-1-((S)-2-((1R,2R)-3-(((1S,2R)-1-hydroxy-1-phenylpropan-2-yl)amino)-1-methoxy-2-methyl-3-oxopropyl)pyrrolidin-1-yl)-3-methoxy-5-methyl-1-oxoheptan-4-yl)-N,3-dimethyl-2-((S)-3-methyl-2-(methylamino)butanamido)butanamide] (H-[NMeV]V[Dil][Dolaproine]-X1), the “maximum tolerated dose (MTD)” value in data set [1] is 0.25 to 0.5 mg/kg. Also, in data set [2] (H&E, PVX and MMAE mice when moribund, PVX-vcMMAE mice at end of study period), the “histological analysis of kidney sections, lymphoma cell infiltration” value is reported as “reduced lymphoma cell infiltration”. The “lymphoma progression by bioluminescence imaging” value in data set [2] (first study: 6 i.p. injections every 4 days from day 3) is “partially limited lymphoma progression”. For the same compound, the median survival in data set [2] (first study: 6 i.p. injections every 4 days from day 3, MMAE 0.125 mg/kg, PVX-vcMMAE 0.4 mg/kg, PVX 1 mg, PBS 45 days) is 61 days; in data set [2] (second study: 3 i.p. injections every 4 days from day 11, PBS 42 days), 39 days.
For the compound `CC[C@H](C)[C@@H]([C@@H](CC(=O)N1CCC[C@H]1[C@H](OC)[C@@H](C)C(=O)N[C@H](C)[C@@H](O)c1ccccc1)OC)N(C)C(=O)[C@@H](NC(=O)[C@H](C(C)C)N(C)C(=O)OCc1ccc(NC(=O)[C@H](CCCNC(N)=O)NC(=O)[C@@H](NC(=O)CCCCCN2C(=O)C=CC2=O)C(C)C)cc1)C(C)C` [vcMMAE] ({Hexanoyl(6-maleimido)}-V[Cit][PABC][NMeV]V[Dil][Dolaproine]-X1), the “cytotoxicity towards non-dividing normal donor B cells” value with normal donor B cells is on record as “no cytotoxicity”. The figures for the IC50 with Raji cells and in the data set with Daudi cells were 160 nM and 80 nM, respectively.

One may read the IC50 as the point on the concentration scale where inhibition reaches its midpoint.

The values above are taken from patent US20220145316A1, “CANCER IMMUNOTHERAPY” (priority 2019, published 2022).
